Test results reported in PubChem BioAssay AID192 (DTP/NCI, 2004).
Several values for one entry are separate records, joined by “and”; a condition that tells them apart may be missing. Equal values may be shown once. Inconclusive results and toxic doses are left out.

System: BDF1 mice, B16 melanoma ip, median survival T/C
Assay: NCI In Vivo Anticancer Drug Screen. Data for tumor model B16 Melanoma (intraperitoneal) in B6D2F1 (BDF1) mice
Conditions: endpoint: median survival time, higher = longer survival
Outline: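 Mice with transplantable tumors; drug vs vehicle groups; endpoint survival or tumor size; value = T/C.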

[1] = dose: 6.25 mg/kg/injection, schedule: Q01DX009 (ip), vehicle: Klucel (hydroxypropylcellulose) (HPC)
[2] = dose: 12.5 mg/kg/injection, schedule: Q01DX009 (ip), vehicle: Klucel (hydroxypropylcellulose) (HPC)
[3] = dose: 25.0 mg/kg/injection, schedule: Q01DX009 (ip), vehicle: Klucel (hydroxypropylcellulose) (HPC)
[4] = dose: 6.25 mg/kg/injection, schedule: Q01DX009 (ip), vehicle: saline
[5] = dose: 12.5 mg/kg/injection, schedule: Q01DX009 (ip), vehicle: saline
[6] = dose: 50.0 mg/kg/injection, schedule: Q01DX009 (ip), vehicle: saline

With Nc1ncnc2c1ncn2C1OC(CO)C(O)C1O (stereo not given) the T/C (dose: 18.7 mg/kg/injection, schedule: Q01DX009 (ip), vehicle: saline) was 96 % of control, the T/C (dose: 32.0 mg/kg/injection, schedule: Q01DX009 (ip), vehicle: Klucel (hydroxypropylcellulose) (HPC)) was 99 % of control and 105 % of control and the T/C (dose: 37.5 mg/kg/injection, schedule: Q01DX009 (ip), vehicle: saline) was 99 % of control. For the same compound, the T/C (dose: 64.0 mg/kg/injection, schedule: Q01DX009 (ip), vehicle: Klucel (hydroxypropylcellulose) (HPC)) was 98 % of control and 101 % of control, the T/C (dose: 75.0 mg/kg/injection, schedule: Q01DX009 (ip), vehicle: saline) was 98 % of control and the T/C (dose: 128.0 mg/kg/injection, schedule: Q01DX009 (ip), vehicle: Klucel (hydroxypropylcellulose) (HPC)) was 99 % of control and 101 % of control. The T/C (dose: 150.0 mg/kg/injection, schedule: Q01DX009 (ip), vehicle: saline) was 121 % of control, the T/C (dose: 256.0 mg/kg/injection, schedule: Q01DX009 (ip), vehicle: Klucel (hydroxypropylcellulose) (HPC)) was 97 % of control and 98 % of control and the T/C (dose: 512.0 mg/kg/injection, schedule: Q01DX009 (ip), vehicle: Klucel (hydroxypropylcellulose) (HPC)) was 93 % of control and 101 % of control. The T/C (dose: 600.0 mg/kg/injection, schedule: Q01DX009 (ip), vehicle: saline) was 123 % of control.
With CC[n+]1ccc(/C=C\c2c(Cl)cccc2Cl)cc1 the T/C [1] was 94 % of control, the T/C [2] was 88 % of control and the T/C [3] was 88 % of control.
For O=NN(CCF)C(=O)NC1CCS(=O)(=O)CC1, the T/C (dose: 3.75 mg/kg/injection, schedule: Q01DX001 (ip), vehicle: saline) was 173 % of control, the T/C (dose: 7.5 mg/kg/injection, schedule: Q01DX001 (ip), vehicle: saline) was 241 % of control and the T/C (dose: 15.0 mg/kg/injection, schedule: Q01DX001 (ip), vehicle: saline) was 260 % of control. For the same compound, the T/C (dose: 30.0 mg/kg/injection, schedule: Q01DX001 (ip), vehicle: saline) was 256 % of control and the T/C (dose: 60.0 mg/kg/injection, schedule: Q01DX001 (ip), vehicle: saline) was 260 % of control.
For CC1(C)C2CCC([CH2][Hg][Cl])C1C2 (stereo not given), the T/C (dose: 2.5 mg/kg/injection, schedule: Q01DX009 (ip), vehicle: saline with Tween-80) was 87 % of control, the T/C (dose: 5.0 mg/kg/injection, schedule: Q01DX009 (ip), vehicle: saline with Tween-80) was 103 % of control and the T/C (dose: 10.0 mg/kg/injection, schedule: Q01DX009 (ip), vehicle: saline with Tween-80) was 87 % of control. For the same compound, the T/C (dose: 20.0 mg/kg/injection, schedule: Q01DX009 (ip), vehicle: saline with Tween-80) was 96 % of control.
For CN(C)CCCN=Cc1cc(Cl)ccc1O.CN(C)CCCN=Cc1cc(Cl)ccc1O.[Ni+2], the T/C (dose: 6.25 mg/kg/injection, schedule: Q01DX009 (ip), vehicle: saline with Tween-80) was 122 % of control, the T/C (dose: 12.5 mg/kg/injection, schedule: Q01DX009 (ip), vehicle: saline with Tween-80) was 116 % of control and the T/C (dose: 25.0 mg/kg/injection, schedule: Q01DX009 (ip), vehicle: saline with Tween-80) was 111 % of control.
In the case of CC(=O)CC(=O)N1CCC(C)CC1, the T/C (dose: 100.0 mg/kg/injection, schedule: Q01DX009 (ip), vehicle: Klucel (hydroxypropylcellulose) (HPC)) is reported as 110 % of control, the T/C (dose: 200.0 mg/kg/injection, schedule: Q01DX009 (ip), vehicle: Klucel (hydroxypropylcellulose) (HPC)) is reported as 112 % of control and the T/C (dose: 400.0 mg/kg/injection, schedule: Q01DX009 (ip), vehicle: Klucel (hydroxypropylcellulose) (HPC)) is reported as 115 % of control.
In the case of Cc1ccc(S(=O)(=O)N/N=C/C(Br)=C(/Br)C(=O)O)cc1, the T/C [2] is reported as 111 % of control, the T/C [3] is reported as 113 % of control and the T/C (dose: 50.0 mg/kg/injection, schedule: Q01DX009 (ip), vehicle: Klucel (hydroxypropylcellulose) (HPC)) is reported as 122 % of control.
In the case of COC1=NCN=C2SC=C(N)N=C12, the T/C (dose: 3.13 mg/kg/injection, schedule: Q01DX009 (ip), vehicle: saline) is reported as 105 % of control, the T/C [4] is reported as 100 % of control and 109 % of control and the T/C [5] is reported as 96 % of control and 98 % of control. For the same compound, the T/C [6] was 98 % of control and 100 % of control.
C[n+]1ccc(Nc2ccc(NC(=O)c3ccc(Nc4cc[n+](C)c5ccc([N+](=O)[O-])cc45)cc3)cc2)cc1 was tested, and the T/C (dose: 4.0 mg/kg/injection, schedule: Q01DX009 (ip), vehicle: saline) was 107 % of control, the T/C (dose: 8.0 mg/kg/injection, schedule: Q01DX009 (ip), vehicle: saline) was 102 % of control and the T/C (dose: 16.0 mg/kg/injection, schedule: Q01DX009 (ip), vehicle: saline) was 107 % of control. The T/C (dose: 32.0 mg/kg/injection, schedule: Q01DX009 (ip), vehicle: saline) was 103 % of control.
For CN1CCN(C(c2ccccc2)c2ccc(Cl)cc2)CC1 (stereo not given), the T/C (dose: 3.12 mg/kg/injection, schedule: Q01DX009 (ip), vehicle: saline) was 105 % of control, the T/C [4] was 105 % of control and the T/C [5] was 102 % of control. For the same compound, the T/C (dose: 25.0 mg/kg/injection, schedule: Q01DX009 (ip), vehicle: saline) was 102 % of control and the T/C [6] was 100 % of control.
With CC(=O)OCc1c(O)c2c(c(O)c1COC(C)=O)C(=O)C=CC2=O the T/C [1] was 94 % of control, the T/C [2] was 91 % of control and the T/C [3] was 89 % of control.
In the case of O=C1Cc2cccc3c2C(C1)CN3C(=O)c1ccccc1 (stereo not given), the T/C (dose: 100.0 mg/kg/injection, schedule: Q04DX003 (ip), vehicle: Klucel (hydroxypropylcellulose) (HPC)) is reported as 101 % of control, the T/C (dose: 200.0 mg/kg/injection, schedule: Q04DX003 (ip), vehicle: Klucel (hydroxypropylcellulose) (HPC)) is reported as 106 % of control and the T/C (dose: 400.0 mg/kg/injection, schedule: Q04DX003 (ip), vehicle: Klucel (hydroxypropylcellulose) (HPC)) is reported as 110 % of control.
